Reference: US20230219965A1 (KSQ Therapeutics, Inc., priority 2020, published 2023)
Where two headings read alike, the source gives them in different places.

Key:
USP1/UAF1 enzyme = USP1/UAF1 enzyme (Homo sapiens, UniProt O94782); experiment: USP1/UAF1 deubiquitination assay (ubiquitin-rhodamine 110 substrate); assay type: biochemical; details: read-out: USP1 IC50 (Ub-Rho)
Procedure, shortened: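 0.05 nM USP1/UAF1 was preincubated 10 min with compounds (dose response from 10 μM) in 50 mM Tris-HCl pH 7.8, 0.5 mM EDTA, 0.01% BSA, 1 mM DTT, 0.01% Tween-20. 150 nM ubiquitin-rhodamine 110 started the reaction, read kinetically 30 min at Ex480/Em540; IC50 by four-parameter fit versus no-enzyme and DMSO controls.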

[1] = tested on: Ub-PCNA levels in the nucleus of ES2 cells (USP1 activity); experiment: ES2 Ub-PCNA immunofluorescence (IF) assay; assay type: cell-based; details: ES2 cells, 3 hours, Ub-PCNA immunofluorescence, read-out: USP1 IC50 (Ub-PCNA)
Protocol: USP1 is a deubiquitinating enzyme that removes ubiquitin from mono-ubiquitinated Proliferating Cell Nuclear Antigen (Ub-PCNA). The levels of Ub-PCNA in the nucleus of cells can be used to assess the activity of USP1. An immunofluorescence assay can be established to monitor Ub-PCNA levels in the ovarian cancer cell line, ES2.
An assay can be performed by first plating 5000 ES2 cells per well in black 96 well plates (Corning #3904) and then incubating overnight at 37° C. and 5% CO2. Compounds, resuspended in DMSO, can be added to the cells, to a final DMSO concentration of 0.3%. Plates can be incubated at 37° C. and 5% CO2 for 3 hours.
Cells can be then fixed and stained by first removing the media from each plate and fixing the cells with −20° C. methanol for 5 minutes at room temperature. Fixation plates can be washed with Tris buffered saline with tween (Boston Bioproducts #IBB-855) 5 times for 5 minutes each. Plates can be blocked for 1 hour with 50 μl of Odyssey blocking buffer (Licor #327-50000) at room temperature with rocking. Block can be removed from all wells and 50 μl of primary antibody was added to each well. Ub-PCNA ab (Cell Signaling Technology #13439) can be diluted at 1:400 in Odyssey blocking buffer. Plates can be sealed and incubated overnight at 4° C. Primary antibodies can be removed from the plates and plates can be washed with Tris buffered saline with tween 5 times for 5 minutes. Plates can be stained for 1 hour at room temperature with rocking with 50 μl of secondary antibodies diluted 1:10,000 in Odyssey blocking buffer at room temperature (anti-rabbit Alexa 488). Antibodies can be removed from the plates and plates can be washed with Tris buffered saline with tween 3 times for 5 minutes. Plates can be washed once with DAPI (Chemometec #910-3012) stain diluted 1:5000 (Stock solution of 500 μg/ml) in tris buffered saline with tween for 5 minutes. DAPI stain can be removed and plates can be washed one additional time for 5 minutes with tris buffered saline with tween. Wash can be removed from the plate and 100 μl tris buffered saline with tween can be added back to all wells, Plates can be sealed with Foil seals or black plate seals and plates can be stored at 4° C. until they can be imaged.
Imaging of the plates can be performed by first locating the nuclei using the DAPI stain. A mask can be created by drawing a circle slightly smaller than each nucleus. Ub-PCNA intensities can be measured for each individual nucleus counted. A histogram of all Ub-PCNA nuclear intensities measured in untreated wells can be generated and a 95% cutoff can be established. This 95% cutoff can be used to determine the number of Positive cells that have Ub-PCNA values higher than the 95% cutoff. The number of positive cells can be expressed as a percentage by dividing by the total number of cells in the well. This percent positive value can be used to graph all data and to determine AC50 values.
USP1 is a deubiquitinating enzyme that removes ubiquitin from mono-ubiquitinated
Proliferating Cell Nuclear Antigen (Ub-PCNA). The levels of Ub-PCNA in the nucleus of cells was used to assess the activity of USP1. An immunofluorescence assay was established to monitor Ub-PCNA levels in the ovarian cancer cell line, ES2.
This assay was performed by first plating 5000 ES2 cells per well in black 96 well plates (Corning #3904) and then incubated overnight at 37° C. and 5% CO2. Compounds, resuspended in DMSO, were added to the cells, to a final DMSO concentration of 0.3%. Plates were incubated at 37° C. and 5% CO2 for 3 hours.
Cells were then fixed and stained by first removing the media from each plate and fixing the cells with −20° C. methanol for 5 minutes at room temperature. Following fixation plates were washed with Tris buffered saline with tween (Boston Bioproducts ABB-855) 5 times for 5 minutes each. Plates were blocked for 1 hour with 50μ.1 of Odyssey blocking buffer (Licor #327-50000) at room temperature with rocking. […]

[2] = ADME solubility determination in PBS at pH 2.0 and pH 7.4; assay type: physicochemical; details: for solubility at 24 h: phosphate buffered saline, 25 °C, thermodynamic from solid
Protocol: Certain Compounds of the Disclosure were assessed for ADME solubility at pH 2.0 and pH 7.4.
Stock solutions were prepared by adding each compound to DMSO at a concentration of 10 mM. Samples were prepared by adding 50 μL of each stock solution to separate vials. The vials were loaded onto a 96-well rack and dried. 500 μL of Phosphate Buffered Saline (PBS) pH 7.4 or PBS pH 2.0 were added into each vial. The vials were then shaken at 25° C. and 1,100 rpm for 24 hours.
After 24 hours, the vials were centrifuged at 3220 G and 25° C. for 30 minutes. The supernatant fluid was analyzed by LC-MS/MS against a standard of known concentration. The solubility of each sample was then calculated using the equation below: […]
where DF is the dilution factor.

[3] = Liver microsomal metabolic stability, rat liver microsomes (RLM); details: rat, liver microsomes, t1/2 (min) in RLM, 1 μM compound, 1 mg/mL microsomes, NADPH
[4] = Liver microsomal metabolic stability, human liver microsomes (HLM); details: human, liver microsomes
[5] = pH 2, aqueous buffer, PBS pH 2.0, 25° C., read-out: Solubility at pH 2.0
[6] = pH 7.4, aqueous buffer, PBS pH 7.4, 25° C., read-out: Solubility at pH 7.4

Sequence of USP1/UAF1 enzyme (O94782 whole entry): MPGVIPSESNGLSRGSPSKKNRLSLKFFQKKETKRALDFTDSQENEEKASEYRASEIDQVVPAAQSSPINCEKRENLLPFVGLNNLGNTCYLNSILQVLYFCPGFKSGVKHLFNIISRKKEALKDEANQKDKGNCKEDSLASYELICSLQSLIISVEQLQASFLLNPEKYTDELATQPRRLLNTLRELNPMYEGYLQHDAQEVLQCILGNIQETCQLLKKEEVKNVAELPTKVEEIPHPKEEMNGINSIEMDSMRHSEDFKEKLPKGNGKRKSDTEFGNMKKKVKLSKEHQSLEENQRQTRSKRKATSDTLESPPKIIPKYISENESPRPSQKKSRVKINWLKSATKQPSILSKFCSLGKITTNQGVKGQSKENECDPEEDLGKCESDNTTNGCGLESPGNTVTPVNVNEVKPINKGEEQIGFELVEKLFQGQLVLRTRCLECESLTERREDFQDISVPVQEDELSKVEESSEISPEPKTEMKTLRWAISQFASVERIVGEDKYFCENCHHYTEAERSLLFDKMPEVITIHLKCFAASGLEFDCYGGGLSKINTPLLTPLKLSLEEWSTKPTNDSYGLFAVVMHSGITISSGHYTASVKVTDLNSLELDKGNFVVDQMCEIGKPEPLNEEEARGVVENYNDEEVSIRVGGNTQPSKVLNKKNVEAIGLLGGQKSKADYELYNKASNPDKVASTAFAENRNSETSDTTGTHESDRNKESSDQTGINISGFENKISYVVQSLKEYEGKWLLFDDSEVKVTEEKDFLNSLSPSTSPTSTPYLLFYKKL
Sequence of USP1/UAF1 enzyme (Q8TAF3 whole entry partner): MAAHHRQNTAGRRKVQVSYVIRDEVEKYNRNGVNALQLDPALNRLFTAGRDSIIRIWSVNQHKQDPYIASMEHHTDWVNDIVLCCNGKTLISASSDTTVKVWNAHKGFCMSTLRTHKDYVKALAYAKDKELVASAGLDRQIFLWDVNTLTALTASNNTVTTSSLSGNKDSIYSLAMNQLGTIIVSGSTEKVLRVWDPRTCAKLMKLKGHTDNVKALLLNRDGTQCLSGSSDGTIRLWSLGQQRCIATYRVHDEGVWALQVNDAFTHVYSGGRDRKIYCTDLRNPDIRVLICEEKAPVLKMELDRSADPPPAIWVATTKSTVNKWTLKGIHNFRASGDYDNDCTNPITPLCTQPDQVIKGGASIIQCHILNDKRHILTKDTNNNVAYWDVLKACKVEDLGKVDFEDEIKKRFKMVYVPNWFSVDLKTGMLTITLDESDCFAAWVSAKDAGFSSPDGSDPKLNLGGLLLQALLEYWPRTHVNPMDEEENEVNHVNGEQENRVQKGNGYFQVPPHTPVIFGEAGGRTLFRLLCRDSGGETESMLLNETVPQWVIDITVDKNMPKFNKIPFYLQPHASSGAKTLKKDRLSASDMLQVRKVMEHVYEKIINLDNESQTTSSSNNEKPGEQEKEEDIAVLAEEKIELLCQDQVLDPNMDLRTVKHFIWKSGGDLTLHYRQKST

IC50 (USP1/UAF1 enzyme) | IC50 ([1]; Homo sapiens, ES-2) | solubility at 24 h [2, 5] | solubility at 24 h [2, 6] | half-life at 1 μM [3] | half-life at 1 μM [4] | SMILES | IC50 [1] | Solubility at pH 2.0 (μM) ([2]; PBS pH 2.0, 25° C., 24 hours) | Solubility at pH 7.4 (μM) ([2]; PBS pH 7.4, 25° C., 24 hours)
< 100 nM | < 100 nM | ≥ 10 µM | ≥ 10 µM | < 25 min | < 25 min | COc1ncnc(C2CC2)c1-c1cc2n(n1)CCC(C)N2Cc1ccc(-c2nc(C(F)(F)F)cn2C)cc1 (racemic) [Example 48, 2-(4-cyclopropyl-6-methoxypyrimidin-5-yl)-5-methyl-4-(4-(1-methyl-4-(trifluoromethyl)-1H-imidazol-2-yl)benzyl)-4,5,6,7-tetrahydropyrazolo[1,5-α]pyrimidine] |  |  | 
< 100 nM | < 100 nM | ≥ 10 µM | < 10 µM | < 25 min | < 25 min | CCn1cc(C(F)(F)F)nc1-c1ccc([C@H](C)N2CCCn3nc(-c4c(Cl)cnn4C(C)C)cc32)cc1 (single isomer, unassigned) [Example 67] |  |  | 
< 100 nM | < 100 nM | < 10 µM | < 10 µM | > 25 min | > 25 min | CCn1cc(C(F)(F)F)nc1-c1ccc(N[C@H]2CCCn3nc(-c4c(Cl)cnn4C(C)C)cc32)cc1 (single isomer, unassigned) [Example 239] |  |  | 
< 100 nM | 100 to 500 nM | < 10 µM | < 10 µM | > 25 min | > 25 min | CCn1cc(C(F)(F)F)nc1-c1ccc(N[C@H]2CCCn3nc(-c4c(OC)ncnc4C4CC4)cc32)cc1 (single isomer, unassigned) [Example 242] |  |  | 
< 100 nM | < 100 nM | < 10 µM | < 10 µM | > 25 min | > 25 min | CCn1cc(C(F)(F)F)nc1-c1ccc(O[C@H]2CCCn3nc(-c4c(OC)ncnc4C4CC4)cc32)cc1F (single isomer, unassigned) [Example 263] |  |  | 
100 to 500 nM | 100 to 500 nM | < 10 µM | < 10 µM | > 25 min | > 25 min | CCn1cc(C(F)(F)F)nc1-c1ccc([C@H](C)N2C(=O)CCn3nc(-c4c(C#N)cnn4C(C)C)cc32)cc1F (single isomer, unassigned) [Example 325] |  |  | 
< 100 nM |  | ≥ 10 µM | ≥ 10 µM | > 25 min | > 25 min | CCn1cc(C(F)(F)F)nc1-c1ccc([C@@H](C)n2c(=O)ccn3nc(-c4c(OC)ncnc4C4CC4)nc23)cc1F [Example 341, (R)-2-(4-cyclopropyl-6-methoxypyrimidin-5-yl)-4-(1-(4-(1-ethyl-4-(trifluoromethyl)-1H-imidazol-2-yl)-3-fluorophenyl)ethyl)-[1,2,4]triazolo[1,5-a]pyrimidin-5(4H)-one] |  |  | 

More lines, now with the values behind:

SMILES | IC50 (USP1/UAF1 enzyme) | IC50 ([1]; Homo sapiens, ES-2) | solubility at 24 h [2, 5] | solubility at 24 h [2, 6] | half-life at 1 μM [3] | half-life at 1 μM [4] | IC50 [1] | Solubility at pH 2.0 (μM) ([2]; PBS pH 2.0, 25° C., 24 hours) | Solubility at pH 7.4 (μM) ([2]; PBS pH 7.4, 25° C., 24 hours)
COc1ncnc(C2CC2)c1-c1cc2n(n1)C(C)CCN2Cc1ccc(-c2nc(C(F)(F)F)cn2C)cc1 (racemic) [Example 51, 2-(4-cyclopropyl-6-methoxypyrimidin-5-yl)-7-methyl-4-(4-(1-methyl-4-(trifluoromethyl)-1H-imidazol-2-yl)benzyl)-4,5,6,7-tetrahydropyrazolo[1,5-α]pyrimidine] | < 100 nM | < 100 nM | ≥ 10 µM | < 10 µM | < 25 min | < 25 min |  |  | 
CCn1cc(C(F)(F)F)nc1-c1ccc([C@@H](C)N2CCCn3nc(-c4c(Cl)cnn4C(C)C)cc32)cc1 (single isomer, unassigned) [Example 68] | < 100 nM | < 100 nM | < 10 µM | < 10 µM | < 25 min | < 25 min |  |  | 
CCn1cc(C(F)(F)F)nc1-c1ccc(N[C@@H]2CCCn3nc(-c4c(Cl)cnn4C(C)C)cc32)cc1 (single isomer, unassigned) [Example 238] | < 100 nM | < 100 nM | < 10 µM | < 10 µM | > 25 min | > 25 min |  |  | 
CCn1cc(C(F)(F)F)nc1-c1ccc(N[C@@H]2CCCn3nc(-c4c(OC)ncnc4C4CC4)cc32)cc1 (single isomer, unassigned) [Example 243] | < 100 nM | 100 to 500 nM | ≥ 10 µM | < 10 µM | > 25 min | > 25 min |  |  | 
CCn1cc(C(F)(F)F)nc1-c1ccc(O[C@@H]2CCCn3nc(-c4c(OC)ncnc4C4CC4)cc32)cc1F (single isomer, unassigned) [Example 264] | < 100 nM | 100 to 500 nM | ≥ 10 µM | < 10 µM | > 25 min | > 25 min |  |  | 
Cc1cnn(C(C)C)c1-c1cc2n(n1)CCCN2Cc1ccc(-c2nc(C(F)(F)F)cn2C)cc1 [Example 47, 2-(1-isopropyl-4-methyl-1H-pyrazol-5-yl)-4-(4-(1-methyl-4-(trifluoromethyl)-1H-imidazol-2-yl)benzyl)-4,5,6,7-tetrahydropyrazolo[1,5-α]pyrimidine] | < 100 nM |  |  |  |  |  | < 100 nM | ++ (“++” indicates 10 μM or greater) | + (“+” indicates less than 10 μM)
CCn1cc(C(F)(F)F)nc1-c1ccc(CN2C(=O)CCn3nc(-c4c(Cl)cnn4C(C)(C)COC)cc32)cc1F [Example 162] | < 100 nM | 100 to 500 nM | ≥ 10 µM | ≥ 10 µM | < 25 min |  |  |  | 
CCn1cc(C(F)(F)F)nc1-c1ccc([C@H](C)n2c(=O)ccn3nc(-c4c(OC)ncnc4C4CC4)nc23)cc1F [Example 342, (S)-2-(4-cyclopropyl-6-methoxypyrimidin-5-yl)-4-(1-(4-(1-ethyl-4-(trifluoromethyl)-1H-imidazol-2-yl)-3-fluorophenyl)ethyl)-[1,2,4]triazolo[1,5-a]pyrimidin-5(4H)-one] | < 100 nM |  | ≥ 10 µM | ≥ 10 µM | > 25 min | > 25 min |  |  | 
